Data from ChEMBL document CHEMBL5726109, “Histone deacetylase inhibitors and compositions and methods of use thereof” (2017).

Biological target: Histone deacetylase 4 (Homo sapiens, UniProt P56524)
Assay: Inhibition Assay: 2 μl (200×) of each diluted solution and each control (full activity: 100% DMSO alone or full inhibition 1 mM) is stamped into V-bottomed polypropylene 384-well compound plates using either the Bravo (384-well head from Agilent) or 12.5 μl 16-channel Matrix multi-channel pipette (Matrix Technologies Ltd).

Histone deacetylase 4, sequence (P56524 whole entry): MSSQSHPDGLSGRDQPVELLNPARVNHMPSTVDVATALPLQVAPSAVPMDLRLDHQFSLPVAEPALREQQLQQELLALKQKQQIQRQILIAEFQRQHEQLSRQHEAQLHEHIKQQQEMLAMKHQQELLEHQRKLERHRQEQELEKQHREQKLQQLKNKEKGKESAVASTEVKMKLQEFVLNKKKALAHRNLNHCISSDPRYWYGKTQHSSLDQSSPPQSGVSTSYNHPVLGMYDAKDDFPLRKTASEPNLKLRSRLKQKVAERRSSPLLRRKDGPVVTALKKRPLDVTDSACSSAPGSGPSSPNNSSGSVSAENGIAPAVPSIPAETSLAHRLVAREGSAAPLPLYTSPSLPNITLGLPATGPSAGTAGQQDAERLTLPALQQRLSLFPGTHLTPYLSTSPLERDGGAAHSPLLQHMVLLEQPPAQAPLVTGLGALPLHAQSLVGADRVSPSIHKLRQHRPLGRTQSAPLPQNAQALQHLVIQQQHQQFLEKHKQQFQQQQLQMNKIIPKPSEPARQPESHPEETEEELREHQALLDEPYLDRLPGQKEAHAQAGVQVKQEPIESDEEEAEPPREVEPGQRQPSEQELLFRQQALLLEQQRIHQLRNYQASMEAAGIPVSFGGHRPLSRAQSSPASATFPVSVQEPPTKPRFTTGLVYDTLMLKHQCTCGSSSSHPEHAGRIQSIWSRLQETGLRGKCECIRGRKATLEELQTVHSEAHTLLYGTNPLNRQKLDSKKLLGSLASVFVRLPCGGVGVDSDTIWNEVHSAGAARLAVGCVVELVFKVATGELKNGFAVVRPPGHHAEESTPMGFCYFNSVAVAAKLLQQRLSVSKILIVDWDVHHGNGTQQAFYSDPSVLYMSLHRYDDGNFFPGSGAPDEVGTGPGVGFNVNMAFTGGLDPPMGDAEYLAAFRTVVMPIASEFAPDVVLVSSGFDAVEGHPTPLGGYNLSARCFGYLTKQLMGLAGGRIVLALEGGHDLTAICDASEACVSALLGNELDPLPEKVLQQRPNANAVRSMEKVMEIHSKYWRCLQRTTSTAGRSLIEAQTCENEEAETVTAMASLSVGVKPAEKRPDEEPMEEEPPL

IC50: 2.4 µM
SMILES: Cc1c(F)cccc1[C@@]1(C(=O)NO)C=C(c2cnccn2)CC1
